From patent publication US8138315B2, “Anti-alpha V immunoliposome compositions, methods and uses” (Centocor Ortho Biotech Inc., priority 2007, dated 2012)

Columns and labels:
[1] = system: murine melanoma cell line, B16F10; assay: Cytotoxicity assay (cell viability, CellTiter 96), negative control; type: cell-based; set-up: unit not given beside the values; details: Murine melanoma B16-F10; 10 minutes at 37° C., washed, plated 3 and 6 days
[2] = system: A2780, Human Ovarian Carcinoma Cell line; assay: Cytotoxicity assay (cell viability, CellTiter 96); type: cell-based; set-up: unit not given beside the values; details: ovarian cancer A2780; 10 minutes at 37° C., washed, plated 3 and 6 days
Experimental: (§1) Several human tumor cells bearing human αVβ3/5 integrins were used: (1) A375.S2, human melanoma cell line; (2) MDA-MB-231, Human Breast Carcinoma Cell line; (3) A2780, Human Ovarian Carcinoma Cell line; (4) HT29, Human Colon Carcinoma Cell line; (5) A549, Human Lung Carcinoma Cell line.
(§2) Cell viability was assayed using the CellTiter 96 AQueous One Solution Cell Proliferation Assay from Promega (Cat No. G3581). A Spectra Max 250 plate reader was used, with a reading wavelength of 490 nm. Confocal Microscopy was done using a Nikon, Eelipse, E600. An Eppendorf centrifuge 5804 was used.
(§3) Liposomes bearing 15:1, 40:1, 90:1 and 180:1 alpha-integrin Fab targeting ligands per liposome and containing doxorubicin were prepared as described in Example 1 and 2. These targeted-liposomes were used in the cytotoxicity assay using the various cells lines, as described below.
(§4) Cells were harvested by scraping and then resuspended at 37° C. for 1 hour to obtain individualized cells. About 1 million cells of each tumor type were counted and placed in individual centrifugation tubes. The tubes were centrifuged to obtain a cell pellet. The cells were then incubated with the targeted liposome compositions containing doxorubicin for 10 minutes at 37° C., with mild shaking, 140 rpm. Cells were treated with a quantity of liposomes sufficient to give a doxorubicin concentration of 40 μg/mL. […]

[3] = system: A375.S2, human melanoma cell line; assay: Cytotoxicity assay (cell viability, CellTiter 96); type: cell-based; set-up: unit not given beside the values; details: 10 minutes at 37° C., washed, plated 3 and 6 days
Experimental: as §1, §2, §3, §4

A375.S2 cells = assay: Binding and internalization of liposomes at 37° C., confocal microscopy; type: cell-based, human; details: 37° C. for 10 min, washed, incubated 1 hour
Experimental: as §1
Liposomes were prepared as described in Example 1, except in two aspects. First, Dextran Alexa Fluor 488 (Cat No. D-22910, from Molecular Probes) was included in the hydration buffer during the passive encapsulation step of liposome formation, and after the sizing step dialysis was used to remove any unencapsulated Alexa. Second, instead of inserting Fab-PEG-lipid into the liposome bilayer, maleimide-PEG-lipid (MalPEG-DSPE) was inserted into the liposome bilayer at approximately 800 MalPeg-DSPE per liposome at 60° C. for 1 Hr. The insertion step was followed by the conjugation of the Fab to the reactive end of the lipopolymer. The appropriate amount of Fab was added to the MalPEG-DSPE inserted liposomes to achieve a 90:1 anti-alphaV-Fab targeting ligands per liposome ratio. These liposomes were used in the binding and internalization studies described below. […]
A375.S2 cells were harvested by scraping and then resuspended to obtain individualized cells and rejuvenated for 1 hour, at 37° C. About 1 million cells of each tumor type were counted and distributed into individual centrifugation tubes. […]

COc1cccc2c1C(=O)c1c(O)c3c(c(O)c1C2=O)C[C@@](O)(C(=O)CO)C[C@@H]3O[C@H]1C[C@H](N)[C@H](O)[C@H](C)O1 [free dox, doxorubicin]
IC50 of doxorubicin [1]: >200 | IC50 of doxorubicin [2]: >200 | IC50 of doxorubicin [3]: >200 | binding and internalization into A375.S2 cells (A375.S2 cells): drug internalization is evident
